These are literature values, as cited in patent US20240390346A1, “COMPOSITIONS FOR A DIETARY SUPPLEMENT TO MANAGE SENESCENT CELLS” (Neurohacker Collective, LLC, priority 2023, published 2024).

This data set deals with senescent cells. The settings on record: literature studies.
Consider `O=c1c(O)c(-c2ccc(O)c(O)c2)oc2cc(O)ccc12` [Fisetin], for which the “senolytic / senomorphic activity” value was “both senolytic and senomorphic activity”.

Turning to `O=c1cc(-c2ccc(O)c(O)c2)oc2cc(O)cc(O)c12` [Luteolin], the “senolytic / senomorphic activity” value is “senolytic activity”.

Consider `COc1cc(/C=C/C(=O)N2CCC=CC2=O)cc(OC)c1OC` [Piperlongumine], for which the “senolytic / senomorphic activity” value is given as “senolytic activity”.

On to `O=c1c(O)c(-c2ccc(O)c(O)c2)oc2cc(O)cc(O)c12` [quercetin], for which the “senolytic / senomorphic activity” value was “both senolytic and senomorphic”.
